Values after ≈ are worked out from the molar mass of the structure shown. Where two headings read alike, the source gives them in different places.
Tests used:
[1] = test system: Engineered strains of E. coli; type: cell-based
[2] = at 20° C.; cited from earlier work
3-HIV = details: expressed in E. coli, plasmid based system, synthetic media; cited from earlier work
[3] = cited from earlier work; for Isobutene production: purified M3K
[4] = after solvent exposure, vs positive control

Question: Which “expression of accBC (fatty acid biosynthesis)” value [1] does the source give for `C=C(C)C` [isobutene] here?
Answer: downregulated

Question: What about the “expression of bssRS (decreasing biofilm material)” value [1] of the same molecule?
Answer: upregulated

Question: What about the “expression of chaperone genes groLS and dnaJK” value [1] of the same molecule?
Answer: increased expression

Question: What about the “expression of gad genes” value [1] of the same molecule?
Answer: increase in expression

Question: What about the “expression of gadABCE (acid resistance via GABA production)” value [1] of the same molecule?
Answer: upregulated

Question: And the “expression of glpABC (glycerol to glycerone phosphate)” value [1]?
Answer: increased in expression

Question: And the “expression of heat shock proteins and chaperones hslJORUV” value [1]?
Answer: no significant changes in expression

Question: What about the “expression of ibpAB” value [1] of the same molecule?
Answer: strong upregulation

Question: What about the “expression of ibpAB and clpAB (protein protection and repair)” value [1] of the same molecule?
Answer: increased

Question: And the “expression of marA” value [1]?
Answer: upregulated

Question: What about the “change in expression of gene adiA” value [1, 4] of the same molecule?
Answer: 0.47 ± 0.86

Question: And the “change in expression of gene adiC” value [1, 4]?
Answer: −1.83 ± 1.03

Question: And the “change in expression of gene adiY” value [1, 4]?
Answer: 0.21 ± 0.65

Question: And the “change in expression of gene bhsA” value [1, 4]?
Answer: 0.43 ± 0.86

Question: What about the “change in expression of gene bssR” value [1, 4] of the same molecule?
Answer: 3.93 ± 0.44

Question: What about the “change in expression of gene bssS” value [1, 4] of the same molecule?
Answer: 3.75 ± 0.84

Question: And the “change in expression of gene clpA” value [1, 4]?
Answer: 1.73 ± 0.64

Question: And the “change in expression of gene clpB” value [1, 4]?
Answer: 2.85 ± 0.69

Question: And the “change in expression of gene clpP” value [1, 4]?
Answer: 0.09 ± 0.59

Question: What about the “change in expression of gene coaA” value [1, 4] of the same molecule?
Answer: −4.22 ± 0.95

Question: What about the “change in expression of gene coaD” value [1, 4] of the same molecule?
Answer: −3.52 ± 1.24

Question: What about the “change in expression of gene cspA” value [1, 4] of the same molecule?
Answer: −8.13 ± 0.67

Question: And the “change in expression of gene cspB” value [1, 4]?
Answer: −9.03 ± 1.74

Question: And the “change in expression of gene cspC” value [1, 4]?
Answer: −2.50 ± 0.94

Question: And the “change in expression of gene cspD” value [1, 4]?
Answer: 3.12 ± 0.58

Question: What about the “change in expression of gene cspE” value [1, 4] of the same molecule?
Answer: −0.85 ± 0.63

Question: And the “change in expression of gene cspF” value [1, 4]?
Answer: −7.27 ± 1.56

Question: And the “change in expression of gene dhaK” value [1, 4]?
Answer: 2.25 ± 0.59

Question: What about the “change in expression of gene dhaL” value [1, 4] of the same molecule?
Answer: 0.48 ± 0.65

Question: And the “change in expression of gene dnaJ” value [1, 4]?
Answer: 0.17 ± 0.70

Question: And the “change in expression of gene dnaK” value [1, 4]?
Answer: 2.71 ± 0.66

Question: What about the “change in expression of gene fabA” value [1, 4] of the same molecule?
Answer: −2.35 ± 0.81

Question: And the “change in expression of gene fabB” value [1, 4]?
Answer: −0.08 ± 0.68

Question: And the “change in expression of gene fabD” value [1, 4]?
Answer: −1.92 ± 0.54

Question: And the “change in expression of gene flgA” value [1, 4]?
Answer: −3.93 ± 1.72

Question: And the “change in expression of gene flgB” value [1, 4]?
Answer: −7.15 ± 1.90

Question: And the “change in expression of gene flgC” value [1, 4]?
Answer: −8.24 ± 2.24

Question: And the “change in expression of gene flgD” value [1, 4]?
Answer: −6.54 ± 2.06

Question: And the “change in expression of gene flgE” value [1, 4]?
Answer: −7.58 ± 1.51

Question: And the “change in expression of gene flgF” value [1, 4]?
Answer: −7.63 ± 1.96

Question: What about the “change in expression of gene flgG” value [1, 4] of the same molecule?
Answer: −6.35 ± 1.72

Question: And the “change in expression of gene flgH” value [1, 4]?
Answer: −4.44 ± 1.88

Question: What about the “change in expression of gene gabD” value [1, 4] of the same molecule?
Answer: −0.64 ± 1.36

Question: And the “change in expression of gene gabP” value [1, 4]?
Answer: −3.65 ± 1.55

Question: And the “change in expression of gene gabT” value [1, 4]?
Answer: −1.79 ± 1.38

Question: And the “change in expression of gene gadA” value [1, 4]?
Answer: 1.22 ± 0.68

Question: What about the “change in expression of gene gadB” value [1, 4] of the same molecule?
Answer: 2.70 ± 0.79

Question: And the “change in expression of gene gadC” value [1, 4]?
Answer: 3.17 ± 0.80

Question: What about the “change in expression of gene gadE” value [1, 4] of the same molecule?
Answer: 1.75 ± 0.60

Question: What about the “change in expression of gene gadW” value [1, 4] of the same molecule?
Answer: −4.21 ± 1.02

Question: And the “change in expression of gene gadX” value [1, 4]?
Answer: −1.69 ± 0.57

Question: And the “change in expression of gene gadY” value [1, 4]?
Answer: −1.72 ± 0.78

Question: And the “change in expression of gene glpA” value [1, 4]?
Answer: 9.06 ± 0.87

Question: What about the “change in expression of gene glpB” value [1, 4] of the same molecule?
Answer: 6.10 ± 0.63

Question: What about the “change in expression of gene glpC” value [1, 4] of the same molecule?
Answer: 6.02 ± 0.80

Question: What about the “change in expression of gene groL” value [1, 4] of the same molecule?
Answer: 2.61 ± 0.57

Question: And the “change in expression of gene groS” value [1, 4]?
Answer: 1.62 ± 0.50

Question: What about the “change in expression of gene hchA” value [1, 4] of the same molecule?
Answer: 3.41 ± 0.60

Question: What about the “change in expression of gene hslJ” value [1, 4] of the same molecule?
Answer: −1.24 ± 0.71

Question: And the “change in expression of gene hslO” value [1, 4]?
Answer: −0.29 ± 0.66

Question: What about the “change in expression of gene hslR” value [1, 4] of the same molecule?
Answer: −0.04 ± 0.67

Question: And the “change in expression of gene hslU” value [1, 4]?
Answer: 0.23 ± 0.56

Question: And the “change in expression of gene hslV” value [1, 4]?
Answer: −1.15 ± 0.66

Question: And the “change in expression of gene ibpA” value [1, 4]?
Answer: 3.97 ± 1.21

Question: What about the “change in expression of gene ibpB” value [1, 4] of the same molecule?
Answer: 3.99 ± 1.50

Question: What about the “change in expression of gene lhgO” value [1, 4] of the same molecule?
Answer: −1.00 ± 1.77

Question: What about the “change in expression of gene lipA” value [1, 4] of the same molecule?
Answer: −1.56 ± 0.63

Question: What about the “change in expression of gene lipB” value [1, 4] of the same molecule?
Answer: −4.07 ± 0.88

Question: And the “change in expression of gene narG” value [1, 4]?
Answer: 4.31 ± 0.65

Question: What about the “change in expression of gene narH” value [1, 4] of the same molecule?
Answer: 3.55 ± 0.61

Question: What about the “change in expression of gene narI” value [1, 4] of the same molecule?
Answer: 1.31 ± 0.94

Question: And the “change in expression of gene narJ” value [1, 4]?
Answer: 2.32 ± 0.68

Question: What about the “change in expression of gene narK” value [1, 4] of the same molecule?
Answer: −0.07 ± 0.89

Question: And the “change in expression of gene potA” value [1, 4]?
Answer: −5.02 ± 0.89

Question: What about the “change in expression of gene potB” value [1, 4] of the same molecule?
Answer: −4.42 ± 1.50

Question: And the “change in expression of gene potC” value [1, 4]?
Answer: −3.91 ± 1.44

Question: And the “change in expression of gene pspA” value [1, 4]?
Answer: 7.14 ± 0.55

Question: And the “change in expression of gene pspB” value [1, 4]?
Answer: 4.56 ± 0.68

Question: What about the “change in expression of gene rpoA” value [1, 4] of the same molecule?
Answer: −0.01 ± 0.44

Question: And the “change in expression of gene rpoB” value [1, 4]?
Answer: −0.34 ± 0.40

Question: What about the “change in expression of gene rpoC” value [1, 4] of the same molecule?
Answer: −0.44 ± 0.39

Question: And the “change in expression of gene rpoD” value [1, 4]?
Answer: −0.24 ± 0.70

Question: And the “change in expression of gene rpoE” value [1, 4]?
Answer: −1.87 ± 0.62

Question: And the “change in expression of gene rpoH” value [1, 4]?
Answer: 0.42 ± 0.52

Question: What about the “change in expression of gene rpoN” value [1, 4] of the same molecule?
Answer: −1.57 ± 0.49

Question: And the “change in expression of gene rpoS” value [1, 4]?
Answer: 0.24 ± 0.48

Question: What about the “change in expression of gene rpoZ” value [1, 4] of the same molecule?
Answer: −2.12 ± 0.55

Question: And the “change in expression of gene spy” value [1, 4]?
Answer: 2.48 ± 0.88

Question: And the “change in expression of gene tatA” value [1, 4]?
Answer: −1.83 ± 0.52

Question: And the “change in expression of gene tatB” value [1, 4]?
Answer: −2.68 ± 0.61

Question: What about the “change in expression of gene tatC” value [1, 4] of the same molecule?
Answer: −3.61 ± 1.20

Question: What about the “change in expression of gene tatD” value [1, 4] of the same molecule?
Answer: −4.46 ± 1.28

Question: And the “change in expression of gene tatE” value [1, 4]?
Answer: 0.70 ± 0.64

Question: What about the “number of genes with significant changes in expression” value ([1]; vs control, Bon Ferroni corrected p-value<0.05) of the same molecule?
Answer: 1384 genes

Question: And the aqueous solubility [2]?
Answer: 30 µg/mL (≈ 535 µM)

B1: M3K: mevalonate-3-kinase of Picrophilus torridus, enzyme and gene/transcript (optimized gene SEQ ID NO:1) (protein)
chain: MENYNVKTRAFPTIGIILLGGISDKKNRIPLHTTAGIAYTGINNDVYTETKLYVSKDEKSYIDGKEIDLNSDRSPSKVIDKFKHEILMRVNLDDENNLSIDSRNFNILSGSSDSGAAALGECIESIFEYNINIFTFENDLQRISESVGRSLYGGLTVNYANGRESLTEPLLEPEAFNNFTIIGAHFNIDRKPSNEIHENIIKHENYRERIKSAERKAKKLEELSRNANIKGIFELAESDTVEYHKMLHDVGVDIINDRMENLIERVKEMKNNFWNSYIVTGGPNVFVITEKKDVDKAMEGLNDLCDDIRLLKVAGKPQVISKNF
modifications: optimized gene; M3K optimized gene
Question: For B1, which isobutene production rates (3-HIV) is on record?
Answer: up to 507 pmol min^−1 g cells^−1

Question: And the “highest overall bioproduction of isobutene” value ([3]; purified M3K enzyme with 3-HIV, 50° C.)?
Answer: 2,880±140 pmol/min*mg protein

Question: And the Isobutene production ([3]; 30° C.)?
Answer: 26±2 pmol*min-1 *mg protein

Question: And the Isobutene production ([3]; 50° C.)?
Answer: 2,880±140 pmol*min-1 *mg protein
